Results reported in PMC6435586 (Frontiers in Pharmacology, 2019).
Where no end group is shown, it is not given here.

Experiment: Serum stability assay
Assay type: in vitro ADME, human
Settings: peptide 6.6 μM
Procedure: The serum stability of the peptides was tested using human male serum (Sigma, USA), as previously described ([Chan et al., 2011]). All peptides were tested at a final concentration of 6.6 μM after dilution from a stock solution at 200 μM. The serum was centrifuged at 17,000g for 10 min to remove the lipid component, and the supernatant incubated at 37°C for 15 min, prior to conducting the assay. The peptides were incubated in serum or phosphate-buffered saline (PBS) at 37°C, and aliquots were taken at 0, 3, 8, and 24 h (40-μl aliquots were taken in triplicate). The aliquots of serum were quenched with 40 μl of 6 M urea and incubated for 10 min at 4°C. The aliquots were then quenched with 40 μl of 20% trichloroacetic acid (TCA) and incubated for another 10 min at 4°C to precipitate serum proteins. Finally, samples were centrifuged at 17,000g for 10 min, and 90 μl of the supernatant was analyzed on reversed-phase HPLC using a Phenomenex Jupiter Proteo C12 analytical column (150 mm × 2.00 mm, 4 μm, 90 Å, Phenomenex, Torrance, CA, USA) and a linear gradient of solvent B [90% acetonitrile/10% H2O, 0.045% trifluoroacetic acid (TFA)] at a flow rate of 0.4 ml/min using an Agilent 1260 Infinity system (Agilent Technologies, Hanover, Germany). The control samples contained equivalent amounts of the peptides in PBS and were subjected to the same treatment procedure. The stability at each time point was calculated based on the area of the RP-HPLC peaks following incubation with serum at 214 nm as a percentage of the area of 0-h serum-treated peptides ([Chan et al., 2013]).

Q: With MAMPAFTTDH-NH2 [CTX-1] as the substance, how does the “detection of peptide in human serum over time” value (human male serum, 37°C, 24 h, RP-HPLC at 214 nm) read?
A: Its value is “could be detected up to 24 h”.

Q: And the remaining at 8 h, 6.6 μM (lipid component removed by centrifugation, human male serum (lipid removed by centrifugation, pre-incubated 15 min at 37°C), 8 h, RP-HPLC C12 peak area at 214 nm as % of 0-h serum-treated peptide, triplicate, mean, read-out: peptide remaining at the 8-h time point in human serum)?
A: Its remaining at 8 h, 6.6 μM is > 18%.

Q: For YGPQALAR-NH2 [CTX-4], which remaining at 3 h, 6.6 μM (lipid component removed by centrifugation, human male serum (lipid removed by centrifugation, pre-incubated 15 min at 37°C), 3 h, RP-HPLC C12 peak area at 214 nm as % of 0-h serum-treated peptide, triplicate, mean, read-out: peptide remaining after 3 h in human serum) is on record?
A: Its remaining at 3 h, 6.6 μM is < 10%.

Q: Which “relative stability in human serum among the fragments (in words)” value (human male serum, 37°C, 0-24 h, RP-HPLC at 214 nm) does the source give for QMARKADDAAG-NH2 [CTX-2] here?
A: The value was “most stable of the peptides tested”.
